Test [1] concerns NCI-H226. The test is described as follows: Antiproliferative activity against YAP-dependent human NCI-H226 cells incubated for 4 days by CellTiter-Glo 2.0 cell viability assay. It counts as functional, cell-based. Conditions: NCI-H226, 96 h.
Test [2] is described as follows: Inhibition of TEAD(unknown origin)/YAP protein-protein interaction transfected in human SK-HEP1 cells incubated for 24 hrs by NanoLuc luciferase reporter assay. It counts as cell-based.
Test [3] has as its system NCI-H226. The test can be described thus: Antiproliferative activity against YAP-dependent human NCI-H226 cells assessed as efficacy incubated for 4 days by CellTiter-Glo 2.0 cell viability assay relative to control. It counts as functional. Conditions: time 4 day.

As for `Cc1snc2c1c1cc(C(=O)NCCO)ccc1n2-c1ccc(C(F)(F)F)cc1`, the figures for the half-maximal inhibitory concentration (IC50) in test [1] and in test [2] were 14 nM and 20 nM, respectively. For the same compound, the Efficacy in test [3] is 103%.
`Cn1ccc([C@@H](CO)NC(=O)c2ccc3c(c2)c2nn(C)nc2n3-c2ccc(C(F)(F)F)cc2)n1`: the values for the IC50 in test [1] and in test [2] were 80 nM and 120 nM, respectively. The Efficacy in test [3] is recorded as 103%.
The corresponding values for `C[C@@H](CO)NC(=O)c1ccc2c(c1)c1cn(C)nc1n2-c1ccc(C(F)(F)F)cc1` are 42 nM, 146 nM and 97%.
The corresponding values for `Cc1snc2c1c1cc(C(=O)N3CC[C@@H](O)C3)ccc1n2-c1ccc(C(F)(F)F)cc1` are 133 nM, 133 nM and 105%.
The corresponding values for `Cn1ccc([C@H](CO)NC(=O)c2ccc3c(c2)c2nn(C)nc2n3-c2ccc(C(F)(F)F)cc2)n1` are 19 nM, 40 nM and 98%.
Consider `C[C@H](CO)NC(=O)c1ccc2c(c1)c1nn(C)nc1n2-c1ccc(C(F)(F)F)cc1`, for which the 50% inhibitory concentration (IC50) in test [1] came to 16 nM; in test [2], 27 nM. The Efficacy in test [3] was determined as 89%.
The corresponding values for `Cn1cc2c3cc(C(=O)N[C@@H](CO)c4ccccn4)ccc3n(-c3ccc(C(F)(F)F)cc3)c2n1` are 15 nM, 16 nM and 99%.
On the same counts, the results for `Cn1cc2c3cc(C(=O)N[C@H](CO)c4ccccn4)ccc3n(-c3ccc(C(F)(F)F)cc3)c2n1` are 191 nM, 573 nM and 105%.
`C[C@H](CO)NC(=O)c1ccc2c(c1)c1cn(C)nc1n2-c1ccc(C(F)(F)F)cc1`: the IC50 in test [1] amounted to 19 nM; in test [2] it was 31 nM. In addition, in test [3], the Efficacy is 93%.
The corresponding values for `Cn1cc2c3cc(C(=O)NC4CC4)ccc3n(-c3ccc(C(F)(F)F)cc3)c2n1` are 54 nM, 22 nM and 99%.
The corresponding values for `Cc1snc2c1c1cc(C(N)=O)ccc1n2-c1ccc(C(F)(F)F)cc1` are 21 nM, 73 nM and 99%.
On the same counts, the results for `C[C@@H](CO)NC(=O)c1ccc2c(c1)c1nn(C)nc1n2-c1ccc(C(F)(F)F)cc1` are 35 nM, 39 nM and 93%.
`CCNC(=O)c1ccc2c(c1)c1cn(C)nc1n2-c1ccc(C(F)(F)F)cc1`: the IC50 in test [1] worked out at 31 nM; in test [2], 13 nM.
With `Cn1nc2c3cc(C(=O)N[C@H](CO)c4ccccn4)ccc3n(-c3ccc(C(F)(F)F)cc3)c2n1`, the figures for the IC50 in test [1] and in test [2] were 217 nM and 156 nM, respectively. In addition, the Efficacy in test [3] is given as 102%.
The corresponding values for `Cn1nc2c3cc(C(=O)NC4CC4)ccc3n(-c3ccc(C(F)(F)F)cc3)c2n1` are 20 nM, 32 nM and 89%.
In the case of `CNC(=O)c1ccc2c(c1)c1nn(C)nc1n2-c1ccc(C(F)(F)F)cc1`, the IC50 turned out to be 38 nM in test [1] and 18 nM in test [2]. Moreover, the Efficacy in test [3] amounted to 98%.
The corresponding values for `Cc1snc2c1c1cc(C(=O)N[C@H](C)CO)ccc1n2-c1ccc(C(F)(F)F)cc1` are 14 nM, 20 nM and 104%.
On to `Cc1snc2c1c1cc(C(=O)N[C@@H](C)CO)ccc1n2-c1ccc(C(F)(F)F)cc1`, for which the IC50 in test [1] amounted to 16 nM; in test [2], 60 nM. For the same compound, in test [3], the Efficacy is listed as 102%.
The corresponding values for `Cn1ccc([C@@H](CO)NC(=O)c2ccc3c(c2)c2cn(C)nc2n3-c2ccc(C(F)(F)F)cc2)n1` are 57 nM, 61 nM and 106%.
The corresponding values for `Cc1snc2c1c1cc(C(=O)N[C@H](CO)c3ccccn3)ccc1n2-c1ccc(C(F)(F)F)cc1` are 153 nM, 290 nM and 112%.
On the same counts, the results for `Cn1nc2c3cc(C(N)=O)ccc3n(-c3ccc(C(F)(F)F)cc3)c2n1` are 80 nM, 18 nM and 95%.
As for `Cc1snc2c1c1cc(C(=O)NC3CC3)ccc1n2-c1ccc(C(F)(F)F)cc1`, the IC50 in test [1] came to 9 nM; in test [2], 20 nM. Further, in test [3], the Efficacy came out at 101%.
For the compound `CNC(=O)c1ccc2c(c1)c1cn(C)nc1n2-c1ccc(C(F)(F)F)cc1`, the results for the concentration for half-maximal inhibition (IC50) in test [1] and in test [2] were 94 nM and 29 nM, respectively. In test [3], the Efficacy is 93%.
As to `Cn1nc2c3cc(C(=O)NCCO)ccc3n(-c3ccc(C(F)(F)F)cc3)c2n1`, the IC50 in test [1] worked out at 34 nM; in test [2], 28 nM. Also, the Efficacy in test [3] turned out to be 94%.
The corresponding values for `Cn1cc2c3cc(C(=O)NCCO)ccc3n(-c3ccc(C(F)(F)F)cc3)c2n1` are 54 nM, 62 nM and 90%.
With `Cn1nc2c3cc(C(=O)N[C@@H](CO)c4ccccn4)ccc3n(-c3ccc(C(F)(F)F)cc3)c2n1`, the IC50 in test [1] is 20 nM; in test [2], 50 nM. For the same compound, in test [3], the Efficacy worked out at 110%.
Regarding `CN(C)C(=O)c1ccc2c(c1)c1cn(C)nc1n2-c1ccc(C(F)(F)F)cc1`, the IC50 is 1010 nM in test [1] and 124 nM in test [2]. The Efficacy in test [3] is listed as 99%.
On the same counts, the results for `Cn1nc2c3cc(C(=O)N4CC[C@@H](O)C4)ccc3n(-c3ccc(C(F)(F)F)cc3)c2n1` are 59 nM, 56 nM and 90%.
On the same counts, the results for `Cc1snc2c1c1cc(C(=O)N3CC[C@H](O)C3)ccc1n2-c1ccc(C(F)(F)F)cc1` are 88 nM, 130 nM and 96%.
Regarding `Cn1nc2c3cc(C(=O)O)ccc3n(-c3ccc(C(F)(F)F)cc3)c2n1`, the IC50 in test [1] was determined as 14 nM; in test [2] it was 1 nM. Also, the Efficacy in test [3] turned out to be 73%.
For `Cn1cc2c3cc(C(N)=O)ccc3n(-c3ccc(C(F)(F)F)cc3)c2n1`, the IC50 in test [1] came out at 66 nM; in test [2] it was 48 nM. The Efficacy in test [3] was 89%.
On the same counts, the results for `CNC(=O)c1ccc2c(c1)c1c(C)snc1n2-c1ccc(C(F)(F)F)cc1` are 18 nM, 22 nM and 108%.
